{"source": "patent US6537267B1", "about": "“Method for chronic catheterization of the common bile duct of a laboratory rat” (priority 2001, dated 2003)", "assay": "Determination of maximal biliary ICG excretion rate", "type": "in vivo, rat", "method": "Bile was obtained through the bile catheter by inserting a 23-gauge infusion set needle (Abbott Laboratories) from which all but 0.5 in of tubing had been removed, and approximately 24 inches of saline-filled PE 60 tubing attached. A sterile 1.5 mL sampling tube was attached to the tubing end, and bile was withdrawn by suspending the sampling tube below the cage using negative pressure. Bile was collected into tared sampling tubes at 5 minute intervals during a 90 minute period during which ICG was infused into the IVC at 50 μg/minute. ICG, 1 mL/h was delivered by a Razel Scientific (Stamford, Conn.) infusion pump with a 3 mL Becton Dickinson (Franklin Lakes, N.J.) syringe.\nBile flow rate was calculated using the net sampling tube weight assuming a bile density of 1 g/mL. A total of 10 μL of bile from each sample tube was aliquoted to determine ICG concentration. The remainder of the bile was infused into the duodenal catheter to maintain enterohepatic circulation of bile acids. Biliary ICG concentrations were measured spectrophotometrically at wavelength 805 nm. Biliary ICG excretion was calculated for each 5 minute interval by multiplying the bile flow rate by the biliary ICG concentration.\nTo establish a sensitive and reliable measure of hepatic dysfunction, the maximal biliary ICG excretion rate under physiologic conditions was determined. This measure, which detected even minor changes in biliary ICG excretion, was critical to subsequent primary studies. The animals were anesthetized with ketamine (60 mg/kg) and xylazine (5 mg/kg) intramuscularly. […] The blood concentrations and biliary excretion rates of ICG was measured during a constant infusion of ICG at 10, 20, 50, 100, and 200 μg/minute for 90 minutes in 8 rats that served as their own controls for the different doses on separate days. […] Biliary ICG excretion was measured as described above. Aortic blood samples (0.25 mL) were collected every 10 minutes and analyzed for ICG concentration. Following each blood draw, the animals were transfused with an equal volume of blood obtained immediately prior to transfusion from other untreated chronically catheterized rats that were previously designated as donors. […] After an initial 30 minute equilibration period mean biliary ICG excretion remained at a steady state concentration between 30 and 90 minutes of ICG infusion. […] The bile flow rate was unaffected by any of the tested ICG concentrations.", "key": {"[1]": {"conditions": "ICG infusion 100 and 200 μg/minute"}}, "data": [{"smiles": "CC1(C)C(/C=C/C=C/C=C/C=C2\\N(CCCCS(=O)(=O)O)c3ccc4ccccc4c3C2(C)C)=[N+](CCCCS(=O)(=O)[O-])c2ccc3ccccc3c21", "note": "[ICG, Indocyanine green]", "values": [{"measurement": "biliary ICG excretion rate between 30 and 90 minutes vs 50 μg/minute", "setting": "[1]", "value": "did not yield a greater biliary ICG excretion rate"}, {"measurement": "mean blood ICG concentrations between 30 and 90 minutes vs 50 μg/minute", "setting": "[1]", "value": "significantly increase mean blood ICG concentrations"}, {"measurement": "effect of ICG on bile flow rate", "setting": "any of the tested ICG concentrations (10-200 μg/minute)", "value": "unaffected"}, {"measurement": "equilibration period before steady state biliary ICG excretion", "setting": "constant ICG infusion", "value": 30, "unit": "min"}]}]}
